In patent publication US20200190073A1, “SUBSTITUTED SUCCINIMIDE DERIVATIVES AS PESTICIDES” (BASF SE, priority 2017, published 2020):
Read-outs that look alike come from different tables or passages of the source.

Legend:
Format in all cases: in vivo
[1] = test system: Cowpea Aphid (Aphis Craccivora); assay: CE.1 Cowpea aphid, comparative test; details: read-out: % mortality in comparison to untreated controls; for mortality at 300 ppm: sprayed cowpea plants
Experimental: (§1) The tables show % mortality in comparison to untreated controls.
CE.1 Cowpea Aphid (Aphis Craccivora)
Potted cowpea plants colonized with approximately 100-150 aphids of various stages were sprayed after the pest population has been recorded. Population reduction was assessed after 24, 72, and 120 hours.

[2] = test system: Rice Brown Plant Hopper (Nilaparvata lugens); assay: CE.2 Rice brown plant hopper, comparative test; details: 10 ppm, after 72 hours, read-out: % mortality in comparison to untreated controls
Experimental: as §1
CE.2 Rice Brown Plant Hopper (Nilaparvata lugens)
(§2) Rice seedlings were cleaned and washed 24 hours before spraying. The active compounds were formulated in 50:50 acetone:water (vol:vol) and 0.1% vol/vol surfactant (EL 620) was added. Potted rice seedlings were sprayed with 5 ml test solution, air dried, placed in cages and inoculated with 10 adults. Treated rice plants were kept at about 28-29° C. and relative humidity of about 50-60%. Percent mortality was recorded after 72 hours.

[3] = test system: Rice Green Leafhopper (Nephotettix virescens); assay: CE.5 Rice green leafhopper, comparative test; details: read-out: % mortality in comparison to untreated controls
Experimental: as §1
CE.5 Rice Green Leafhopper (Nephotettix virescens)
as §2, with “(vol:vol),” for “(vol:vol)”

[4] = test system: Orchid Thrips (Dichromothrips Corbetti); assay: CE.3 Orchid thrips, comparative test; details: 96 h, 10 ppm, after 4 days, read-out: % mortality in comparison to untreated controls
Experimental: as §1
CE.3 Orchid Thrips (Dichromothrips Corbetti)
Dichromothrips corbetti adults used for bioassay were obtained from a colony maintained continuously under laboratory conditions. For testing purposes, the test compound was diluted to a concentration of 300 ppm (wt compound: vol diluent) in a 1:1 mixture of acetone:water (vol:vol), plus 0.01% vol/vol Kinetic® surfactant.
Thrips potency of each compound was evaluated by using a floral-immersion technique. Plastic petri dishes were used as test arenas. All petals of individual, intact orchid flowers were dipped into treatment solution and allowed to dry. Treated flowers were placed into individual petri dishes along with 10-15 adult thrips. The petri dishes were then covered with lids. All test arenas were held under continuous light and a temperature of about 280C for duration of the assay. After 4 days, the numbers of live thrips were counted on each flower, and along inner walls of each petri dish. The level of thrips mortality was extrapolated from pre-treatment thrips numbers.

[5] = test system: Boll Weevil (Anthonomus grandis); assay: B.5 Boll weevil, insect diet with eggs; details: 120 h, read-out: mortality in comparison with untreated controls
Experimental: B.5 Boll Weevil (Anthonomus grandis)
For evaluating control of boll weevil (Anthonomus grandis) the test unit consisted of 96-well-microtiter plates containing an insect diet and 5-10 A. grandis eggs.
The compounds were formulated using a solution containing 75% v/v water and 25% v/v DMSO. Different concentrations of formulated compounds were sprayed onto the insect diet at 5 μl, using a custom built micro atomizer, at two replications.
After application, microtiter plates were incubated at about 25±1° C. and about 75±5% relative humidity for 5 days. Egg and larval mortality was then visually assessed.

[6] = test system: Orchid Thrips (Dichromothrips Corbetti); assay: B.7 Orchid thrips, floral immersion; details: Thrips, 72 h, read-out: mortality in comparison with untreated controls
Experimental: B.7 Orchid Thrips (Dichromothrips Corbetti)
Dichromothrips corbetti adults used for bioassay were obtained from a colony maintained continuously under laboratory conditions. For testing purposes, the test compound is diluted in a 1:1 mixture of acetone:water (vol:vol), plus Kinetic HV at a rate of 0.01% v/v.
Thrips potency of each compound was evaluated by using a floral-immersion technique. All petals of individual, intact orchid flowers were dipped into treatment solution and allowed to dry in Petri dishes. Treated petals were placed into individual re-sealable plastic along with about 20 adult thrips. All test arenas were held under continuous light and a temperature of about 28° C. for duration of the assay. After 3 days, the numbers of live thrips were counted on each petal. The percent mortality was recorded 72 hours after treatment.

[7] = test system: Green Soldier Stink Bug (Nezara viridula); assay: B.11 Green soldier stink bug, sprayed soybean pods; details: 120 h, read-out: mortality in comparison with untreated controls
Experimental: B.11 Green Soldier Stink Bug (Nezara viridula)
The active compound was dissolved at the desired concentration in a mixture of 1:1 (vol:vol) distilled water:acetone. Surfactant (Kinetic HV) was added at a rate of 0.01% (vol/vol). The test solution was prepared at the day of use. Soybean pods were placed in glass Petri dishes lined with moist filter paper and inoculated with ten late 3rd instar N. viridula. Using a hand atomizer, approximately 2 ml solution is sprayed into each Petri dish. Assay arenas were kept at about 25° C. Percent mortality was recorded after 5 days.

[8] = test system: Green Peach Aphid (Myzus persicae); assay: B.2 Green peach aphid, artificial diet, systemic; details: 72 h, read-out: mortality in comparison with untreated controls
Description: B.2 Green Peach Aphid (Myzus persicae)
For evaluating control of green peach aphid (Myzus persicae) through systemic means the test unit consisted of 96-well-microtiter plates containing liquid artificial diet under an artificial mem brane.
The compounds were formulated using a solution containing 75% v/v water and 25% v/v DMSO. Different concentrations of formulated compounds were pipetted into the aphid diet, using a custom built pipetter, at two replications.
After application, 5-8 adult aphids were placed on the artificial membrane inside the microtiter plate wells. The aphids were then allowed to suck on the treated aphid diet and incubated at about 23±1° C. and about 50±5% relative humidity for 3 days. Aphid mortality and fecundity was then visually assessed.

[9] = test system: Tobacco Budworm (Heliothis virescens); assay: B.4 Tobacco budworm, insect diet with eggs; details: 120 h, read-out: mortality in comparison with untreated controls
Experimental: B.4 Tobacco Budworm (Heliothis virescens)
For evaluating control of tobacco budworm (Heliothis virescens) the test unit consisted of 96-well-microtiter plates containing an insect diet and 15-25 H. virescens eggs.
The compounds were formulated using a solution containing 75% v/v water and 25% v/v DMSO. Different concentrations of formulated compounds were sprayed onto the insect diet at 10 μl, using a custom built micro atomizer, at two replications.
After application, microtiter plates were incubated at about 28±1° C. and about 80±5% relative humidity for 5 days. Egg and larval mortality was then visually assessed.

[10] = test system: Red Spider Mite (Tetranychus kanzawai); assay: B.9 Red spider mite, sprayed cowpea beans; details: 72 h, read-out: mortality in comparison with untreated controls
Experimental: B.9 Red Spider Mite (Tetranychus kanzawai)
The active compound was dissolved at the desired concentration in a mixture of 1:1 (vol:vol) distilled water:acetone. Add surfactant (Kinetic HV) was added at a rate of 0.01% (vol/vol).The test solution was prepared at the day of use.
Potted cowpea beans of 4-5 days of age were cleaned with tap water and sprayed with 1-2 ml of the test solution using air driven hand atomizer. The treated plants were allowed to air dry and afterwards inoculated with 30 or more mites by clipping a cassava leaf section from rearing population. Treated plants were placed inside a holding room at about 25-27° C. and about 50-60% relative humidity. Percent mortality was assessed 72 hours after treatment.

[11] = test system: Vetch Aphid (Megoura viciae); assay: B.3 Vetch aphid, broad bean leaf disks; details: foliar, 120 h, read-out: mortality in comparison with untreated controls
Experimental: B.3 Vetch Aphid (Megoura viciae)
For evaluating control of vetch aphid (Megoura viciae) through contact or systemic means the test unit consisted of 24-well-microtiter plates containing broad bean leaf disks.
The compounds were formulated using a solution containing 75% v/v water and 25% v/v DMSO. Different concentrations of formulated compounds were sprayed onto the leaf disks at 2.5 μl, using a custom built micro atomizer, at two replications.
After application, the leaf disks were air-dried and 5-8 adult aphids placed on the leaf disks inside the microtiter plate wells. The aphids were then allowed to suck on the treated leaf disks and incubated at about 23±1° C. and about 50±5% relative humidity for 5 days. Aphid mortality and fecundity was then visually assessed.

[12] = test system: Diamond back moth (Plutella xylostella); assay: B.1 Diamond back moth, cabbage leaf dip; details: foliar, 72 h, read-out: mortality in comparison with untreated controls
Experimental: B.1 Diamond back moth (Plutella xylostella)
The active compound was dissolved at the desired concentration in a mixture of 1:1 (vol:vol) distilled water:acetone. Surfactant (Kinetic HV) was added at a rate of 0.01% (vol/vol). The test solution was prepared at the day of use.
Leaves of cabbage were dipped in test solution and air-dried. Treated leaves were placed in petri dishes lined with moist filter paper and inoculated with ten 3rd instar larvae. Mortality was recorded 72 hours after treatment. Feeding damages were also recorded using a scale of 0-100%.

[13] = test system: Rice Green Leafhopper (Nephotettix virescens); assay: B.8 Rice green leafhopper, sprayed rice seedlings; details: 72 h, read-out: mortality in comparison with untreated controls
Experimental: B.8 Rice Green Leafhopper (Nephotettix virescens)
as §2, with “in 1:1” for “in 50:50”, “acetone:water (vol:vol),” for “acetone:water (vol:vol)”, “and 0.01%” for “and 0.1%”, “surfactant (Kinetic HV)” for “surfactant (EL 620)”, “with 5-6” for “with 5”, “dried, covered with Mylar” for “dried, placed in”

[14] = test system: Diamond back moth (Plutella xylostella); assay: CE.6 Diamond back moth, contact activity, comparative test; details: read-out: % mortality in comparison to untreated controls
Experimental: as §1
CE.6 Diamond Back Moth (Plutella xylostella)
Ten third-instar larvae are sprayed with 1 ml test solution and introduce to untreated leaves held petri dished lined with moist filter paper. Mortality is recorded 24, 72, and 120 hours after treatment.

[15] = test system: Neotropical Brown Stink Bug (Euschistus heros); assay: B.12 Neotropical brown stink bug, dipped pole bean; details: 120 h, read-out: mortality in comparison with untreated controls
Experimental: B.12 Neotropical Brown Stink Bug (Euschistus heros)
For evaluating control of Euschistus heros through contact the test unit consisted of 100 ml disposable plastic beakers with transparent lids.
The compounds were formulated using a solution containing 50% water and 50% acetone. 50 ml of different concentrations of formulated compounds or mixtures were prepared in a glass petri dish and used for dipping three 6 cm sections of fresh pole bean. Each treatment was replicated eight times.
After application, the pole bean sections were air-dried and 5 adult E. heros placed in each beaker. The E. heros were then allowed to suck on the treated pole bean sections and incubated at 23±1° C., 50±5% RH for 5 days. E. heros mortality was then visually assessed.

SMILES: Cc1cc(C2=NSC(c3cc(Cl)cc(Cl)c3)(C(F)(F)F)C2)ccc1C(=O)NC1CCN(CC(F)(F)F)C1=O (stereo not shown) [No. 2-195 of WO 2013/092943, reference compound]
- mortality at 300 ppm [1]: 0%
- mortality at 10 ppm [2]: 25%
- mortality at 3 ppm ([3]; 3 ppm, after 72 hours): 0%
- mortality at 10 ppm [4]: 0%

SMILES: Cc1cc(C2=NOC(c3cc(Cl)c(F)c(Cl)c3)(C(F)(F)F)C2)ccc1C(=O)N[C@@H]1CC(=O)N(C)C1=O (stereo partly shown) [Compound I-1-27]
- mortality at 2500 ppm [5]: > 75%
- mortality at 300 ppm [6]: > 75%
- mortality at 10 ppm [1]: 93%
- mortality at 300 ppm [7]: > 75%
- mortality at 2500 ppm [8]: > 75%
- mortality at 2500 ppm [9]: > 75%
- mortality at 300 ppm [10]: > 75%
- mortality at 3 ppm ([3]; 72 h): 83%
- mortality at 2500 ppm [11]: > 75%
- mortality at 300 ppm [12]: > 75%
- mortality at 300 ppm [13]: > 75%
- mortality at 0.1 ppm [14]: 100%

SMILES: CCN1C(=O)C[C@@H](NC(=O)c2ccc(C3=NO[C@@](c4cc(Cl)c(F)c(Cl)c4)(C(F)(F)F)C3)cc2Cl)C1=O [Compound I-1-21]
- mortality at 2500 ppm [5]: > 75%
- mortality at 300 ppm [6]: > 75%
- mortality at 300 ppm [7]: > 75%
- mortality at 2500 ppm [8]: > 75%
- mortality at 2500 ppm [9]: > 75%
- mortality at 300 ppm [10]: > 75%
- mortality at 2500 ppm [11]: > 75%
- mortality at 300 ppm [12]: > 75%
- mortality at 300 ppm [13]: > 75%
- mortality at 0.1 ppm [14]: 97%

SMILES: Cc1cc(C2=NOC(c3cc(Cl)cc(Cl)c3)(C(F)(F)F)C2)ccc1C(=O)N[C@@H]1CC(=O)N(C)C1=O (stereo partly shown) [Compound I-1-28]
- mortality at 2500 ppm [5]: > 75%
- mortality at 300 ppm [6]: > 75%
- mortality at 10 ppm [1]: 50%
- mortality at 300 ppm [7]: > 75%
- mortality at 2500 ppm [8]: > 75%
- mortality at 2500 ppm [9]: > 75%
- mortality at 300 ppm [10]: > 75%
- mortality at 3 ppm ([3]; 72 h): 79%
- mortality at 2500 ppm [11]: > 75%
- mortality at 500 ppm [15]: > 75%
- mortality at 300 ppm [12]: > 75%
- mortality at 300 ppm [13]: > 75%

SMILES: CCN1CCC(NC(=O)c2ccc(C3=NOC(c4cc(Cl)c(F)c(Cl)c4)(C(F)(F)F)C3)c3c2CCC3)C1=O (stereo not shown) [Tab. 127, A-9 of WO 2015128358, reference compound]
- mortality at 0.1 ppm [14]: 0%

SMILES: Cc1cc(C2=NSC(c3cc(Cl)cc(Cl)c3)(C(F)(F)F)C2)ccc1C(=O)NC1CCN(C)C1=O (stereo not shown) [No. 2-201 of WO 2013/092943]
- mortality at 300 ppm [1]: 0%
- mortality at 10 ppm [2]: 0%
- mortality at 3 ppm ([3]; 3 ppm, after 72 hours): 0%

SMILES: CN1CCC(NC(=O)c2ccc(C3=NOC(c4cc(Cl)c(F)c(Cl)c4)(C(F)(F)F)C3)c3c2CCC3)C1=O (stereo not shown) [Tab. 126, A-9 of WO 2015128358, reference compound]
- mortality at 0.1 ppm [14]: 0%
